Reference: ChEMBL document CHEMBL1139096, “HeLa cells apoptosis induced by 1,7-dimethyl-1,4,7,10-tetraazacyclododecane” (2007)
Calls of active or inactive are those of the source. No cut-off for these calls is given here.

Columns and labels:
HeLa [1] = test: Cell cycle arrest in human HeLa cells assessed as accumulation at G2/M phase at 300 umol/L after 72 hrs; assay type: functional
HeLa [2] = test: Cell cycle arrest in human HeLa cells assessed as accumulation at G0-G1 phase at 50 umol/L after 72 hrs; assay type: functional
HeLa [3] = test: Cell cycle arrest in human HeLa cells assessed as accumulation at G0-G1 phase at 300 umol/L after 72 hrs; assay type: functional
HeLa [4] = test: Induction of apoptosis in human HeLa cells assessed as morphological changes at 50 umol/L; assay type: functional, cell-based
HeLa [5] = test: Growth inhibition of human HeLa cells at 0.1 mM by MTT assay; assay type: functional; conditions: read-out: GI
HeLa [6] = test: Growth inhibition of human HeLa cells at 10 uM by MTT assay; assay type: functional; conditions: read-out: GI
HeLa [7] = test: Growth inhibition of human HeLa cells at 1 uM by MTT assay; assay type: functional; conditions: read-out: GI
HeLa [8] = test: Growth inhibition of human HeLa cells at 0.1 uM by MTT assay; assay type: functional
A549 [9] = test: Growth inhibition of human A549 cells at 0.1 mM by MTT assay; assay type: functional; conditions: read-out: GI
A549 [10] = test: Growth inhibition of human A549 cells at 10 uM by MTT assay; assay type: functional; conditions: read-out: GI
A549 [11] = test: Growth inhibition of human A549 cells at 1 uM by MTT assay; assay type: functional; conditions: read-out: GI
A549 [12] = test: Growth inhibition of human A549 cells at 0.1 uM by MTT assay; assay type: functional; conditions: read-out: GI
HeLa [13] = test: Induction of apoptosis in human HeLa cells at 300 umol/L by flow cytometry; assay type: functional
A549 [14] = test: Induction of apoptosis in human A549 cells at 200 umol/L by flow cytometry; assay type: functional
HeLa [15] = test: Cell cycle arrest in human HeLa cells assessed as accumulation at S phase at 50 umol/L after 72 hrs; assay type: functional
HeLa [16] = test: Cell cycle arrest in human HeLa cells assessed as accumulation at S phase at 300 umol/L after 72 hrs; assay type: functional
HeLa [17] = test: Cell cycle arrest in human HeLa cells assessed as accumulation at G2/M phase at 200 umol/L after 72 hrs; assay type: functional
HeLa [18] = test: Induction of apoptosis in human HeLa cells assessed as morphological changes at 100 umol/L; assay type: functional, cell-based
HeLa [19] = test: Induction of apoptosis in human HeLa cells assessed as morphological changes at 200 umol/L; assay type: functional, cell-based
HeLa [20] = test: Induction of apoptosis in human HeLa cells assessed as DNA fragmentation at 200 umol/L by electrophoresis; assay type: functional, cell-based

SMILES: CN1CCNCCN(C)CCNCC1
- Activity (HeLa [1]): 15.3%
- Activity (HeLa [2]): 60.5%
- Activity (HeLa [3]): 84.7%
- Activity (HeLa [4]): inactive
- inhibition of growth at 100 µM (HeLa [5]): 63.1%
- inhibition of growth at 10 µM (HeLa [6]): 17.7%
- inhibition of growth at 1 µM (HeLa [7]): 9.8%
- growth inhibition (GI) (HeLa [8]): 9%
- inhibition of growth at 100 µM (A549 [9]): 53.6%
- inhibition of growth at 10 µM (A549 [10]): 22.4%
- inhibition of growth at 1 µM (A549 [11]): 13.7%
- inhibition of growth at 0.1 µM (A549 [12]): 11%
- Activity (HeLa [13]): 55%
- Activity (A549 [14]): 7%
- Activity (HeLa [15]): 33.3%
- Activity (HeLa [16]): 0%
- Activity (HeLa [17]): 25.2%
- Activity (HeLa [18]): Active
- Activity (HeLa [19]): Active
- Activity (HeLa [20]): Active
